Holding throughout (assay type): functional
In test [1] the test system is Pseudomonas aeruginosa. In words: Antimicrobial activity against Pseudomonas aeruginosa MTCC 2488 by broth microdilution method. Background: In broth dilution the organism is exposed to a series of concentrations in liquid medium.
Test [2] concerns Escherichia coli. The test can be described thus: Antimicrobial activity against Escherichia coli MTCC 442 by broth microdilution method.
For test [3], the system named is Aspergillus niger. The test can be described thus: Antimicrobial activity against Aspergillus niger MTCC 282.
Test [4] relates to Candida albicans. In words: Antimicrobial activity against Candida albicans MTCC 227.
For test [5], the system named is Streptococcus pyogenes. The test can be described thus: Antimicrobial activity against Streptococcus pyogenes MTCC 443 by broth microdilution method.
The test system of test [6] is Staphylococcus aureus. In words: Antimicrobial activity against Staphylococcus aureus MTCC 96 by broth microdilution method.
Test [7] concerns Aspergillus clavatus. The test can be described thus: Antimicrobial activity against Aspergillus clavatus MTCC 1323.

The term MIC denotes the smallest concentration in the dilution series that meets the test's criterion for growth inhibition. Higher therefore signals a less susceptible organism.

Converted amounts (≈) assume the structure as drawn. A value given as a limit tells only on which side of the number the result lay.

Regarding `COc1ccc(-c2cc(=O)n(-c3cccc(Cl)c3)c(N3CCCC3)c2/N=N/c2ccccc2[N+](=O)[O-])cc1`, the minimal inhibitory concentration (MIC) in test [1] is 200 µg/mL (≈ 377 µM); in test [2], 200 µg/mL (≈ 377 µM); in test [3], 500 µg/mL (≈ 943 µM); in test [4], 250 µg/mL (≈ 472 µM); in test [5], 100 µg/mL (≈ 189 µM); in test [6], 100 µg/mL (≈ 189 µM). Moreover, the MIC in test [7] was determined as 250 µg/mL (≈ 472 µM).

Regarding `CC1(C)S[C@@H]2[C@H](NC(=O)[C@H](N)c3ccccc3)C(=O)N2[C@H]1C(=O)O` [AMPICILLIN], the MIC in test [1] is 100 µg/mL (≈ 286 µM); in test [2], 100 µg/mL (≈ 286 µM); in test [5], 100 µg/mL (≈ 286 µM); in test [6], 250 µg/mL (≈ 715 µM).

In the case of `COc1ccc(-c2cc(N3CCCC3)n(-c3cccc(Cl)c3)c(=O)c2/N=N/c2ccccc2Cl)cc1`, the MIC was found to be 100 µg/mL (≈ 193 µM) in test [1]; 100 µg/mL (≈ 193 µM) in test [2]; 250 µg/mL (≈ 481 µM) in test [3]; 500 µg/mL (≈ 963 µM) in test [4]; 250 µg/mL (≈ 481 µM) in test [5]; 250 µg/mL (≈ 481 µM) in test [6]. This compound showed a minimal inhibitory concentration (MIC) in test [7] of 250 µg/mL (≈ 481 µM).

Consider `COc1ccc(-c2cc(N3CCCC3)n(-c3cccc(Cl)c3)c(=O)c2/N=N/c2cccc(Cl)c2)cc1`, for which the MIC in test [1] came to 500 µg/mL (≈ 963 µM); in test [2] it was 500 µg/mL (≈ 963 µM); in test [3] it was 500 µg/mL (≈ 963 µM); in test [4] it was 250 µg/mL (≈ 481 µM); in test [5] it was 100 µg/mL (≈ 193 µM); in test [6], 100 µg/mL (≈ 193 µM). The same compound showed an MIC in test [7] of 500 µg/mL (≈ 963 µM).

For the compound `O=C(O)c1cn(C2CC2)c2cc(N3CCNCC3)c(F)cc2c1=O` [CIPROFLOXACIN], the MIC in test [2] amounted to 25 µg/mL (≈ 75.4 µM); in test [5] it was 50 µg/mL (≈ 151 µM); in test [6], 50 µg/mL (≈ 151 µM).

`COc1ccc(-c2cc(=O)n(-c3cccc(Cl)c3)c(N3CCCC3)c2/N=N/c2ccc(Cl)c(Cl)c2)cc1`: the MIC is 200 µg/mL (≈ 361 µM) in test [1]; 62.5 µg/mL (≈ 113 µM) in test [2]; 500 µg/mL (≈ 903 µM) in test [3]; 100 µg/mL (≈ 181 µM) in test [4]; 500 µg/mL (≈ 903 µM) in test [5]; 200 µg/mL (≈ 361 µM) in test [6]. The compound also gave an MIC in test [7] of 1000 µg/mL (≈ 1810 µM).

For the compound `COc1ccc(-c2cc(=O)n(-c3cccc(Cl)c3)c(N3CCCC3)c2/N=N/c2ccccc2Cl)cc1`, the MIC stood at 100 µg/mL (≈ 193 µM) in test [1]; 250 µg/mL (≈ 481 µM) in test [2]; 500 µg/mL (≈ 963 µM) in test [3]; 250 µg/mL (≈ 481 µM) in test [4]; 250 µg/mL (≈ 481 µM) in test [5]; 250 µg/mL (≈ 481 µM) in test [6]. Further, the MIC in test [7] is 250 µg/mL (≈ 481 µM).

Consider `COc1ccc(-c2cc(=O)n(-c3cccc(Cl)c3)c(N3CCCC3)c2/N=N/c2ccccc2C)cc1`, for which the minimum inhibitory concentration (MIC) is 500 µg/mL (≈ 1000 µM) in test [1]; 200 µg/mL (≈ 401 µM) in test [2]; 1000 µg/mL (≈ 2000 µM) in test [3]; 250 µg/mL (≈ 501 µM) in test [4]; 500 µg/mL (≈ 1000 µM) in test [5]; 500 µg/mL (≈ 1000 µM) in test [6]. The same compound showed an MIC in test [7] of 1000 µg/mL (≈ 2000 µM).

For the compound `COc1ccc(-c2cc(=O)n(-c3cccc(Cl)c3)c(N3CCCC3)c2/N=N/c2ccc([N+](=O)[O-])cc2Cl)cc1`, the minimal inhibitory concentration (MIC) in test [1] came out at 250 µg/mL (≈ 443 µM); in test [2], 250 µg/mL (≈ 443 µM); in test [3] it was 500 µg/mL (≈ 886 µM); in test [4] it was 500 µg/mL (≈ 886 µM); in test [5], 200 µg/mL (≈ 354 µM); in test [6] it was 200 µg/mL (≈ 354 µM). Besides, in test [7], the minimum inhibitory concentration (MIC) was 500 µg/mL (≈ 886 µM).

On to `COc1ccc(-c2cc(N3CCCC3)n(-c3cccc(Cl)c3)c(=O)c2/N=N/c2cc(Cl)ccc2Cl)cc1`, for which the MIC in test [1] was 500 µg/mL (≈ 903 µM); in test [2], 250 µg/mL (≈ 451 µM); in test [3], over 1000 µg/mL; in test [4], 1000 µg/mL (≈ 1810 µM); in test [5], 500 µg/mL (≈ 903 µM); in test [6] it was 500 µg/mL (≈ 903 µM). The same compound yielded an MIC in test [7] of over 1000 µg/mL.

With `COc1ccc(-c2cc(N3CCCC3)n(-c3cccc(Cl)c3)c(=O)c2/N=N/c2cccc([N+](=O)[O-])c2)cc1`, the minimal inhibitory concentration (MIC) in test [1] was 200 µg/mL (≈ 377 µM); in test [2] it was 200 µg/mL (≈ 377 µM); in test [3], 500 µg/mL (≈ 943 µM); in test [4], 500 µg/mL (≈ 943 µM); in test [5], 250 µg/mL (≈ 472 µM); in test [6] it was 250 µg/mL (≈ 472 µM). The same compound returned an MIC in test [7] of 500 µg/mL (≈ 943 µM).

With `COC1=CC(=O)C[C@@H](C)[C@]12Oc1c(Cl)c(OC)cc(OC)c1C2=O` [GRISEOFULVIN], the figures for the MIC in test [3], in test [4] and in test [7] were 100 µg/mL (≈ 283 µM), 500 µg/mL (≈ 1420 µM) and 100 µg/mL (≈ 283 µM), respectively.

These data come from ChEMBL document CHEMBL3046502, “In vitro antimicrobial and antitubercular studies of novel 6-substituted (pyrrolidin-1-yl)-2(1H)-pyridinones” (2012).
